Patent publication US20220289685A1, “ANTIMALARIAL HEXAHYDROPYRIMIDINE ANALOGUES” (UCB BIOPHARMA SRL, priority 2019, published 2022)
Where a name gives a salt, the structure may show the parent alone.

The molecules below were run on Plasmodium falciparum 3D7 strain (assay: P. falciparum 3D7 asexual blood stage assay (SYBR green readout)). Settings: Plasmodium falciparum, 3D7, Erythrocyte, 72 h.
Assay type: cell-based
In short: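 P. falciparum 3D7 in A+ erythrocytes (5% haematocrit, 0.5% parasitaemia) exposed 72 h at 37 °C under 1% O2/3% CO2 to 20-point 1.5-fold titrations, 50,000–15 nM in 0.5% DMSO. SYBR green lysis overnight, fluorescence 485/528 nm; normalized to mefloquine and DMSO, EC50 from biphasic two-site fit.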

SMILES	IC50 [µM]
C[C@@H]1C[C@H](N2C(=N)N[C@](C)(c3cccc(NC(=O)c4ccc(C(F)(F)F)nn4)c3Cl)CC2=O)CCO1 (relative stereo) [Example 59, N-(2-Chloro-3-{(4S)-2-imino-4-methyl-1-[(2R*,4R*)-2-methyl-tetrahydropyran-4-yl]-6-oxo-hexahydropyrimidin-4-yl]phenyl)-6-(trifluoromethyl)pyridazine-3-carboxamide hydrochloride]	0.114
C[C@@H]1C[C@H](N2C(=N)N[C@](C)(c3cccc(NC(=O)c4cccnc4C(F)(F)F)c3Cl)CC2=O)CCO1 (relative stereo) [Example 61, N-(2-Chloro-3-{(4S)-2-imino-4-methyl-1-[(2R*,4R*)-2-methyl-tetrahydropyran-4-yl]-6-oxo-hexahydropyrimidin-4-yl}phenyl)-2-(trifluoromethyl)pyridine-3-carboxamide hydrochloride]	0.442
C[C@@H]1C[C@H](N2C(=N)N[C@](C)(c3cccc(NC(=O)c4nnc5ccccn45)c3Cl)CC2=O)CCO1 (relative stereo) [Example 62, N-(2-Chloro-3-{(4S)-2-imino-4-methyl-1-[(2R*,4R*)-2-methyl-tetrahydropyran-4-yl]-6-oxo-hexahydropyrimidin-4-yl]phenyl)-[1,2,4]triazolo[4,3-a]pyridine-3-carboxamide hydrochloride]	0.023
C[C@@H]1C[C@H](N2C(=N)N[C@](C)(c3cccc(NC(=O)c4ccc(Cl)cn4)c3Cl)CC2=O)CCO1 (relative stereo) [Example 63, 5-Chloro-N-(2-chloro-3-{(4S)-2-imino-4-methyl-1-[(2R*,4R*)-2-methyltetrahydropyran-4-yl]-6-oxo-hexahydropyrimidin-4-yl]phenyl)-pyridine-2-carboxamide hydrochloride]	0.041
C[C@@H]1C[C@H](N2C(=N)N[C@](C)(c3cccc(NC(=O)c4ncc5ccccn45)c3Cl)CC2=O)CCO1 (relative stereo) [Example 65, N-(2-Chloro-3-{(4S)-2-imino-4-methyl-1-[(2R*,4R*)-2-methyl-tetrahydropyran-4-yl]-6-oxo-hexahydropyrimidin-4-yl]phenyl)-imidazo[1,5-a]pyridine-3-carboxamide hydrochloride]	0.051
Cc1cncc(C(=O)Nc2cccc([C@]3(C)CC(=O)N([C@@H]4CCO[C@H](C)C4)C(=N)N3)c2Cl)n1 (relative stereo) [Example 66, N-(2-Chloro-3-{(4S)-2-imino-4-methyl-1-[(2R*,4R*)-2-methyl-tetrahydropyran-4-yl]-6-oxo-hexahydropyrimidin-4-yl}phenyl)-6-methylpyrazine-2-carboxamide hydrochloride]	0.092
C[C@@H]1C[C@H](N2C(=N)NC(C)(c3cccc(NC(=O)c4ccc(Cl)cc4F)c3Cl)CC2=O)CCO1 (relative stereo) [Example 67, 4-Chloro-N-(2-chloro-3-{(4S)-2-imino-4-methyl-1-[(2R*,4R*)-2-methyltetrahydropyran-4-yl]-6-oxo-hexahydropyrimidin-4-yl}phenyl)-2-fluorobenzamide hydrochloride]	0.026
COc1cncc(C(=O)Nc2cccc([C@]3(C)CC(=O)N([C@@H]4CCO[C@H](C)C4)C(=N)N3)c2Cl)n1 (relative stereo) [Example 68, N-(2-Chloro-3-{(4S)-2-imino-4-methyl-1-[(2R*,4R*)-2-methyl-tetrahydropyran-4-yl]-6-oxo-hexahydropyrimidin-4-yl}phenyl)-6-methoxypyrazine-2-carboxamide hydrochloride]	0.011
C[C@@H]1C[C@H](N2C(=N)N[C@](C)(c3cccc(NC(=O)c4cc(Cl)c(F)cc4F)c3Cl)CC2=O)CCO1 (relative stereo) [Example 69, 5-Chloro-N-(2-chloro-3-{(4S)-2-imino-4-methyl-1-[(2R*,4R*)-2-methyltetrahydropyran-4-yl]-6-oxo-hexahydropyrimidin-4-yl}phenyl)-2,4-difluorobenzamide hydrochloride]	0.025
C[C@@H]1C[C@H](N2C(=N)N[C@](C)(c3cccc(NC(=O)c4cncc(C(F)(F)F)c4)c3Cl)CC2=O)CCO1 (relative stereo) [Example 70, N-(2-Chloro-3-{(4S)-2-imino-4-methyl-1-[(2R*,4R*)-2-methyl-tetrahydropyran-4-yl]-6-oxo-hexahydropyrimidin-4-yl}phenyl)-5-(trifluoromethyl)pyridine-3-carboxamide hydrochloride]	0.036
C[C@@H]1C[C@H](N2C(=N)N[C@](C)(c3cccc(NC(=O)c4ccc(F)c(Cl)c4F)c3Cl)CC2=O)CCO1 (relative stereo) [Example 71, 3-Chloro-N-(2-chloro-3-{(4S)-2-imino-4-methyl-1-[(2R*,4R*)-2-methyltetrahydropyran-4-yl]-6-oxo-hexahydropyrimidin-4-yl}phenyl)-2,4-difluorobenzamide hydrochloride]	0.026
C[C@@H]1C[C@H](N2C(=N)N[C@](C)(c3cccc(NC(=O)c4cccc(C#N)n4)c3Cl)CC2=O)CCO1 (relative stereo) [Example 72, N-(2-Chloro-3-{(4S)-2-imino-4-methyl-1-[(2R*,4R*)-2-methyl-tetrahydropyran-4-yl]-6-oxo-hexahydropyrimidin-4-yl}phenyl)-6-cyanopyridine-2-carboxamide hydrochloride]	0.014
C[C@@H]1C[C@H](N2C(=N)N[C@](C)(c3cccc(NC(=O)c4cccc(C#N)c4F)c3Cl)CC2=O)CCO1 (relative stereo) [Example 73, N-(2-Chloro-3-{(4S)-2-imino-4-methyl-1-[(2R*,4R*)-2-methyl-tetrahydropyran-4-yl]-6-oxo-hexahydropyrimidin-4-yl}phenyl)-3-cyano-2-fluorobenzamide hydrochloride]	0.006
C[C@@H]1C[C@H](N2C(=N)N[C@](C)(c3cccc(NC(=O)c4cncc(C#N)c4)c3Cl)CC2=O)CCO1 (relative stereo) [Example 74, N-(2-Chloro-3-{(4S)-2-imino-4-methyl-1-[(2R*,4R*)-2-methyl-tetrahydropyran-4-yl]-6-oxo-hexahydropyrimidin-4-yl}phenyl)-5-cyanopyridine-3-carboxamide hydrochloride]	0.109
C[C@@H]1C[C@H](N2C(=N)N[C@](C)(c3cccc(NC(=O)c4cc(C#N)ccn4)c3Cl)CC2=O)CCO1 (relative stereo) [Example 75, N-(2-Chloro-3-{(4S)-2-imino-4-methyl-1-[(2R*,4R*)-2-methyl-tetrahydropyran-4-yl]-6-oxo-hexahydropyrimidin-4-yl}phenyl)-4-cyanopyridine-2-carboxamide hydrochloride]	0.02
C[C@@H]1C[C@H](N2C(=N)N[C@](C)(c3cccc(NC(=O)c4cc(C#N)ccc4F)c3Cl)CC2=O)CCO1 (relative stereo) [Example 76, N-(2-Chloro-3-{(4S)-2-imino-4-methyl-1-{(2R*,4R*)-2-methyl-tetrahydropyran-4-yl]-6-oxo-hexahydropyrimidin-4-yl}phenyl)-5-cyano-2-fluorobenzamide hydrochloride]	0.011
C[C@@H]1C[C@H](N2C(=N)N[C@](C)(c3cccc(NC(=O)c4cc(Cl)cc(C#N)c4)c3Cl)CC2=O)CCO1 (relative stereo) [Example 77, 3-Chloro-N-(2-chloro-3-{(4S)-2-imino-4-methyl-1-[(2R*,4R*)-2-methyltetrahydropyran-4-yl]-6-oxo-hexahydropyrimidin-4-yl}phenyl)-5-cyanobenzamide hydrochloride]	0.007
Cc1ccnc(C(=O)Nc2cccc([C@]3(C)CC(=O)N([C@@H]4CCO[C@H](C)C4)C(=N)N3)c2Cl)n1 (relative stereo) [Example 78, N-(2-Chloro-3-{(4S)-2-imino-4-methyl-1-[(2R*,4R*)-2-methyl-tetrahydropyran-4-yl]-6-oxo-hexahydropyrimidin-4-yl}phenyl)-4-methylpyrimidine-2-carboxamide hydrochloride]	0.027
COc1ccc2ccccc2c1C(=O)Nc1cccc([C@]2(C)CC(=O)N([C@@H]3CCO[C@H](C)C3)C(=N)N2)c1Cl (relative stereo) [Example 79, N-(2-Chloro-3-{(4S)-2-imino-4-methyl-1-[(2R*,4R*)-2-methyl-tetrahydropyran-4-yl]-6-oxo-hexahydropyrimidin-4-yl]phenyl)-2-methoxynaphthalene-1-carboxamide trifluoroacetic acid salt]	0.061
C[C@@H]1C[C@H](N2C(=N)N[C@](C)(c3cccc(NC(=O)c4ccc(F)cc4C(F)(F)F)c3Cl)CC2=O)CCO1 (relative stereo) [Example 80, N-(2-Chloro-3-{(4S)-2-imino-4-methyl-1-[(2R*,4R*)-2-methyl-tetrahydropyran-4-yl]-6-oxo-hexahydropyrimidin-4-yl}phenyl)-4-fluoro-2-(trifluoromethyl)-benzamide trifluoroacetic acid salt]	0.061

Same assay, conditions: Plasmodium falciparum, Erythrocyte; P. falciparum 3D7 in human erythrocytes, 72 h incubation, SYBR green fluorescence; read-out: IC50

SMILES	IC50 [µM]
C[C@@H]1C[C@H](N2C(=N)N[C@](C)(c3cccc(NC(=O)c4ncn5ccccc45)c3Cl)CC2=O)CCO1 (relative stereo) [Example 60, N-(2-Chloro-3-{(4S)-2-imino-4-methyl-1-[(2,R*,4R*)-2-methyl-tetrahydropyran-4-yl]-6-oxo-hexahydropyrimidin-4-yl}phenyl)-imidazo[1,5-a]pyridine-1-carboxamide hydrochloride]	0.122
C[C@@H]1C[C@H](N2C(=N)N[C@](C)(c3cccc(NC(=O)c4cc(F)c(F)cc4F)c3Cl)CC2=O)CCO1 (relative stereo) [Example 64, N-(2-Chloro-3-{(4S)-2-imino-4-methyl-1-[(2,R*,4R*)-2-methyl-tetrahydropyran-4-yl]-6-oxo-hexahydropyrimidin-4-yl}phenyl)-2,4,5-trifluorobenzamide hydrochloride]	0.013
